Where “and” joins values, the source holds several entries; their conditions need not be identical. Equal entries are not always repeated.
Columns and labels:
Assay type in all cases: in vivo, Balb/c mice
[1] = tested on: peripheral blood cells (monocytes, lymphocytes, granulocytes); assay: Differential count in blood; settings: for % of granulocytes / % of lymphocytes / % of monocytes: peripheral blood 24 hrs after i.p. injection
Procedure: (§1) Using the same experimental groups as described above in Example 3, two extra microscopic slides from each experimental sample were prepared. After Accustain (modified Wright stain, Sigma) staining, the slides were evaluated using the optical microscope for presence of individual types of cells, i.e. monocytes, lymphocytes and granulocytes.

[2] = tested on: cells from peripheral blood (monocytes, granulocytes); assay: Phagocytosis of HEMA particles by cells from peripheral blood after intraperitoneal injection; settings: for % of phagocytosing granulocytes / % of phagocytosing monocytes: peripheral blood 24 hrs after i.p. injection
Procedure: A group of Balb/c mice (Jackson laboratory, Bar Harbor, ME, USA) has been injected intraperitoneally with either PBS (Control; Sigma, St. Louis, Mo., USA), Laminaritetraose or Laminaripentaose. 24 hrs later, mice were sacrified, peripheral blood from the orbital plexus was collected into heparine (5 IU/ml) (Sigma).
After counting, a test of phagocytosis of HEMA particles (synthetic microspheres prepared from 2-hydroxyethylmethacrylate copolymer) was performed as described in: Rembaum et al., 1976, Vetvicka et al. 1982, Bilej et al., 1989.
0.1 ml of heparinized fresh blood was added to 0.05 ml of diluted HEMA particles (5×10^8/ml) and incubated for 60 minutes at 37° C. with occasional gentle agitation.
After the end of incubation, the cell suspension was smeared over microscope slides. Smears were evaluated under the optical microscope after Accustain (modified Wright stain, Sigma) staining.
Cells with at least three engulfed particles were considered to be positive.

[3] = tested on: TNF-alpha; assay: Cytokine level in peripheral blood: TNF-alpha in serum by OptEIA Mouse TNF-alpha ELISA; settings: for TNF-alpha level (Table 6, same experiments as Table 5): 250 μg/mouse, unit not given in Table 6 (Table 5: pg/ml)
Procedure: Balb/c mice were intraperitoneally injected with 50 μg of Laminaritetraose, Laminaripentaose, Laminarin or Lentinan (purchased from NIH, Bethesda, Md., USA) in PBS.
After various time intervals (30, 60 and 90 minutes, respectively), after the injection of Laminaritetraose, Laminaripentaose, Laminarin, Lentinan only, the mice were killed and blood was collected in Eppendorf tubes.
Subsequently, the serum of the collected blood was separated, collected and stored at −80° C. for no more than 1 week.
The level of TNF-alpha in the serum samples was evaluated using a commercial kit marketed as OptEIA Mouse TNF-alpha (Mono/Mono) Set by the Company Pharmingen, San Diego, Calif., USA); the manufacturer's instructions were followed.
In connection with the experiments carried out by Applicants, Balb/c mice were intraperitoneally injected with various doses (50, 100, and 250 μg) of Soluble laminarin and Lentinan (from NIH, Bethesda, Md., USA) in PBS.
Control mice were treated with PBS only. […]
Subsequently, the serum was prepared, collected and stored at −80° C. for no more than 1 week.
The level of TNF-alpha in serum samples was evaluated using a commercial kit marketed as OptEIA Mouse TNF-alpha (Mono/Mono) Set by the Company Pharmingen, San Diego, Calif., USA); the manufacturer's instructions were followed.
In that respect, The wells of 96-well plates were coated with 0.1 ml/well of capture antibody (provided in the above kit) diluted in coating buffer (also provided in the above kit); the expression “capture antibody” designates first antibody used for coating of wells; this antibody captures the tested cytokines from the solution; in this assay it was anti-mouse-TNF-alpha monoclonal antibody.
The plates were sealed and incubated overnight at 4° C.
Individual wells were emptied by aspiration and washed 3 times with over 300 el/well of wash buffer (also provided in the kit).
Reaction was blocked with 200 el/well of assay dilutant diluent (also provided in the kit) and by incubation for 60 minutes at room temperature.
Again, individual wells were emptied by aspiration and washed 3 times with over 300 el/well of the same wash buffer.
Standards (also provided in the kit) and samples of serum were diluted in assay diluent (also provided in the kit) and pipetted (100 μl/well) in appropriate wells; as far as the dissolution rate is concerned standards (part of the kit) were diluted according to the instructions into following concentrations: 1000 pg/ml, 500 pg/ml, 250, 125, 62.5, 31.3, and 15.6 pg/ml.
The plates were sealed and incubated for 60 minutes at room temperature. Individual wells were aspirated and washed 3 times with over 300 μl/well of the same wash buffer. A quantity of 100 μl/well of a working detector (antibody-avidin-HRP conjugate also provided in the kit) was added into each well.
The plates were sealed with plastic foils and incubated for 60 minutes at room temperature. Individual wells were emptied by aspiration and washed 3 times with over 300 μl/well of same wash buffer.
A quantity of 100 μl/well of substrate solution (also provided in the kit) was added to each well and the plates were incubated for 30 minutes in the dark at room temperature; “substrate solution” is formed by mixing a substrate reagent A containing hydrogen peroxide and Substrate reagent B containing 3,3′,5,5′-tetramethylbenzidine in organic solvent; when mixed together, the reagent reacts with peroxidase-labeled conjugates to develop a blue color.
A quantity of 50 μl/well of stop solution provided in the kit and adapted to stop the reaction was added to each well and the optical density was determined using a STL ELISA reader (marketed by Tecan U.S., Research Triangle Park, N.C.) at 450 nm with a correction at 570 nm.
The concentration of TNF-alpha, in pg/ml, in the blood of the mice treated as hereabove disclosed has been determined at the following moments: 30, 60 and 90 minutes after the injection of Laminaritetraose, Laminaripentaose, Lentinan and control. […]

[4] = tested on: peritoneal macrophages; assay: Phagocytosis of HEMA particles by cells from peritoneal cavity after intraperitoneal injection; settings: for % of phagocytosing macrophages: peritoneal cells 24 hrs after i.p. injection
Procedure: A group of Balb/c mice (Jackson laboratory, Bar Harbor, Me., USA) has been injected intraperitoneally with either PBS (control), Laminaritetraose or Laminaripentaose. 24 hrs later, mice were sacrificed, peritoneal cells were collected into Hanks medium (Sigma).
After counting the cells in hemocytometer, the peritoneal cells were diluted to lxlO7 cells in RPMI 1640 medium (Sigma) with 5% fetal calf serum (Hyclone, Logan, Utah, USA).
2×10^6 cells in 0.2 ml of RPMI 1640 medium supplemented with 5% fetal calf serum were mixed with the same volume of HEMA particles (5×10^8/ml).
The suspension was incubated for 60 minutes at 37° C. with occasional agitation. Incubation was terminated by centrifugation (150 g for 5 minutes) and the pellet was resuspended.
Macrophages with ingested particles were scored under the optical microscope in smears after Accustain (modified Wright stain, Sigma) staining.
Cells with six or more engulfed particles were considered to be positive.

[5] = tested on: peritoneal cells (macrophages, lymphocytes, mast cells); assay: Differential count in peritoneal cells; settings: for % of lymphocytes / % of macrophages / % of mast cells: peritoneal cells 24 hrs after i.p. injection
Procedure: as §1, with “4,” for “3,”, “macrophages,” for “monocytes,”, “mast cells.” for “granulocytes.”

[6] = individual values, cells with at least three engulfed HEMA particles positive
[7] = mean, at least three engulfed HEMA particles

SMILES: OC[C@H]1O[C@@H](O[C@@H]2[C@@H](O)[C@H](O[C@@H]3[C@@H](O)[C@H](O[C@@H]4[C@@H](O)[C@H](O)O[C@H](CO)[C@H]4O)O[C@H](CO)[C@H]3O)O[C@H](CO)[C@H]2O)[C@H](O)[C@@H](O)[C@@H]1O [Laminaritetraose, β-D-glucopyranosyl-(1→3)-β-D-glucopyranosyl-(1→3)-β-D-glucopyranosyl-(1→3)-β-D-glucopyranose]
- % of granulocytes ([1]; individual values): 33.2% and 34.4% and 30.1%
- % of lymphocytes ([1]; individual values): 57.7% and 55.6% and 61.4%
- % of monocytes ([1]; individual values): 9.1% and 10.0% and 8.5%
- % of granulocytes ([1]; mean): 32.6%
- % of lymphocytes ([1]; mean): 58.2%
- % of monocytes ([1]; mean): 9.2%
- Effect on number of granulocytes in the peripheral blood (in words) ([1]; versus PBS control): increase the number of granulocytes
- % of phagocytosing granulocytes [2, 6]: 28.6% and 32.3% and 32.6%
- % of phagocytosing monocytes [2, 6]: 36.8% and 30.9% and 39.8%
- % of phagocytosing granulocytes [2, 7]: 31.2%
- % of phagocytosing monocytes [2, 7]: 35.8%
- Effect on phagocytosis in monocytes and granulocytes (in words) ([2]; peripheral blood, versus PBS control): strongly stimulate phagocytosis
- Concentration of TNF alpha in blood of treated mice ([3]; 50 μg/mouse i.p., 30 min): 55.7 pg/mL
- Concentration of TNF alpha in blood of treated mice ([3]; 50 μg/mouse i.p., 60 min): 103.0 pg/mL
- Concentration of TNF alpha in blood of treated mice ([3]; 50 μg/mouse i.p., 90 min): 35.3 pg/mL
- Concentration of TNF alpha in blood of treated mice ([3]; 100 μg/mouse i.p., 30 min): 39.0 pg/mL
- Concentration of TNF alpha in blood of treated mice ([3]; 100 μg/mouse i.p., 60 min): 18.4 pg/mL
- Concentration of TNF alpha in blood of treated mice ([3]; 100 μg/mouse i.p., 90 min): 13.6 pg/mL
- Concentration of TNF alpha in blood of treated mice ([3]; 250 μg/mouse i.p., 30 min): 27.3 pg/mL
- Concentration of TNF alpha in blood of treated mice ([3]; 250 μg/mouse i.p., 60 min): 152.3 pg/mL
- Concentration of TNF alpha in blood of treated mice ([3]; 250 μg/mouse i.p., 90 min): 11.1 pg/mL
- TNF-alpha level (Table 6, same experiments as Table 5) ([3]; 24 hours): 28.1 pg/mL
- TNF-alpha level (Table 6, same experiments as Table 5) ([3]; 48 hours): 35.9 pg/mL
- Relative activity on TNF-alpha level (in words) ([3]; comparison between substances, Table 6, 24 and 48 h): more active than yest derived glucan (Lentinan)
- Increase of TNF-alpha secretion compared with Lentinan (in words) ([3]; low doses, indirect activation of macrophages and cytotoxic T lymphocytes): significantly higher
- % of phagocytosing macrophages ([4]; individual values, cells with six or more engulfed HEMA particles positive): 46.2% and 51.5% and 44.5%
- % of phagocytosing macrophages ([4]; mean, six or more engulfed HEMA particles): 47.4%
- Effect on phagocytosis of peritoneal macrophages (in words) ([4]; peritoneal cells, versus PBS control): strongly stimulate phagocytosis
- % of lymphocytes ([5]; individual values): 45.9% and 50.4% and 44.1%
- % of macrophages ([5]; individual values): 41.2% and 43.6% and 46.8%
- % of mast cells ([5]; individual values): 12.9% and 6.0% and 9.1%
- % of lymphocytes ([5]; mean): 46.8%
- % of macrophages ([5]; mean): 43.9%
- % of mast cells ([5]; mean): 9.3%
- Effect on migration of macrophage into the peritoneal cavity (in words) ([5]; versus PBS control): stimulate the migration of macrophage

From patent publication US20050065114A1, “Therapeutical treatment with oligo-beta- (1,3) -glucans, drugs used in said treatment” (priority 2003, published 2005)
